From patent US10233173B2, “Substituted 1,2,3-triazoles as NR2B-selective NMDA modulators” (JANSSEN PHARMACEUTICA NV, priority 2016, dated 2019) come the findings set out here.

In the assay the target is human GluN1/GluN2B NMDA receptors (Homo sapiens, UniProt Q05586+Q13224). The assay can be described thus: Cell-based calcium flux (FLIPR) assay on cloned human NR1/NR2B ion channels expressed in mammalian cells. To be noted: standard assay; human GluN1/GluN2B, calcium flux (FLIPR), glutamate ~EC80. Put shortly: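 Calcium influx followed by FLIPR fluorescence after 5 min compound exposure and a further 5 min co-agonist challenge: 10 μM glycine with glutamate at ~EC80 (standard) or EC40 (HTS).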
Chain of human GluN1/GluN2B NMDA receptors (Q13224 27-1484, other chains not shown): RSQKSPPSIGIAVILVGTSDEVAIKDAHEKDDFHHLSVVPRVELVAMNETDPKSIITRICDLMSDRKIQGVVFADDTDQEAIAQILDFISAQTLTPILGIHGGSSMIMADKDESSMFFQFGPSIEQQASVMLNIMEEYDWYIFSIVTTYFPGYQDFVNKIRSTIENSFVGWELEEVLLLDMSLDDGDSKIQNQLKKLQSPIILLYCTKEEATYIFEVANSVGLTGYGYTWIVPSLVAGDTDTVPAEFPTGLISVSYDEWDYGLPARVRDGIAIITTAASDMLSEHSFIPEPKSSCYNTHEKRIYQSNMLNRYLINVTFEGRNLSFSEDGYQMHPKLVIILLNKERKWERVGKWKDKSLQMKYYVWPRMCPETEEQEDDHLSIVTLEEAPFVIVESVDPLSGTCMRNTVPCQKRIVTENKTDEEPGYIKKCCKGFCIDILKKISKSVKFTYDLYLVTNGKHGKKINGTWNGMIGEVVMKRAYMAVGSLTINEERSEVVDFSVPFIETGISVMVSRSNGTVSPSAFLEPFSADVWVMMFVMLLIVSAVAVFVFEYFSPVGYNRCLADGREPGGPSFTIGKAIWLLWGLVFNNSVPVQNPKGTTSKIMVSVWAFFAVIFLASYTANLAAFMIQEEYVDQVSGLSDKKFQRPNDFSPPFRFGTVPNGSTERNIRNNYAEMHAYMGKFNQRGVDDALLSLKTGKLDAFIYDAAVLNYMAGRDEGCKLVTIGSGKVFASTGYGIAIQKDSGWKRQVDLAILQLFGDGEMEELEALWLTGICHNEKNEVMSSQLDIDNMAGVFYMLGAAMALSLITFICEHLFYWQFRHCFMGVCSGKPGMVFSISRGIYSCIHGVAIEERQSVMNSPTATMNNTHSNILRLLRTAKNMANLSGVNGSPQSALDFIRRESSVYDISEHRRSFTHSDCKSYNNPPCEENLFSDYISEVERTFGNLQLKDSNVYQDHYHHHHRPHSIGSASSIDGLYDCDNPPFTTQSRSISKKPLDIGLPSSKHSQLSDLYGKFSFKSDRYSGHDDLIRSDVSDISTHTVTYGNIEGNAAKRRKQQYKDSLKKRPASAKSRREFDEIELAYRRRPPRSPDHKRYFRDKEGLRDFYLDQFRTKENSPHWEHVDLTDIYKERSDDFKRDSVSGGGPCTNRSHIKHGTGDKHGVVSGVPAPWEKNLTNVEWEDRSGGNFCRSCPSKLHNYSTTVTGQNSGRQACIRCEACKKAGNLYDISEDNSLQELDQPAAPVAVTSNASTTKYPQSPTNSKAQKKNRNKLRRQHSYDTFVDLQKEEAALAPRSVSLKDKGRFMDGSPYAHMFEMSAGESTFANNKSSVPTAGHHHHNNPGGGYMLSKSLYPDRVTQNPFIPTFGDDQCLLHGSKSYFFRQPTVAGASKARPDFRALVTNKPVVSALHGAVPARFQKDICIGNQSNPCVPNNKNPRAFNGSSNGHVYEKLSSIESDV

As for `CC(C)(O)c1cnc(OCc2cn(-c3ccc(F)c(C4CCC4)c3)nn2)nc1` [Example 178, 2-[2-[[1-(3-Cyclobutyl-4-fluoro-phenyl)triazol-4-yl]methoxy]pyrimidin-5-yl]propan-2-ol], the IC50 was 0.349 µM.

Turning to `CC(C)c1cc(-n2cc(COc3ncc(C(C)(C)O)cn3)nn2)ccc1F` [Example 179, 2-[2-[[1-(4-Fluoro-3-isopropyl-phenyl)triazol-4-yl]methoxy]pyrimidin-5-yl]propan-2-ol], the half-inhibitory concentration (IC50) is 0.029 µM.

Take `CC(C)(O)c1cnc(OCc2cn(-c3ccc(F)c(C4CC4)c3)nn2)nc1` [Example 180, 2-[2-[[1-(3-Cyclopropyl-4-fluoro-phenyl)triazol-4-yl]methoxy]pyrimidin-5-yl]propan-2-ol]: the IC50 was determined as 0.133 µM.

Turning to `Cc1cc(-n2cc(COc3ncc(C(C)(C)O)cn3)nn2)ccc1F` [Example 181, 2-[2-[[1-(4-Fluoro-3-methyl-phenyl)triazol-4-yl]methoxy]pyrimidin-5-yl]propan-2-ol], the 50% inhibitory concentration (IC50) amounted to 0.097 µM.

On to `CCc1cc(-n2cc(COc3ncc(C(C)(C)O)cn3)nn2)ccc1F` [Example 182, 2-[2-[[1-(3-Ethyl-4-fluoro-phenyl)triazol-4-yl]methoxy]pyrimidin-5-yl]propan-2-ol], for which the half-inhibitory concentration (IC50) amounted to 0.027 µM.

For the compound `CC(F)(F)c1cc(-n2cc(COc3ncc(Br)cn3)nn2)ccc1F` [Example 183, 5-Bromo-2-[[1-[3-(1,1-difluoroethyl)-4-fluoro-phenyl]triazol-4-yl]methoxy]pyrimidine], the IC50 worked out at 0.009 µM.

In the case of `Cn1ccc(-c2cnc(OCc3cn(-c4ccc(F)c(C(C)(F)F)c4)nn3)nc2)n1` [Example 184, 2-[[1-[3-(1,1-Difluoroethyl)-4-fluoro-phenyl]triazol-4-yl]methoxy]-5-(1-methylpyrazol-3-yl)pyrimidine], the IC50 amounted to 0.309 µM.

For `CC(F)(F)c1cc(-n2cc(COc3ncc(-c4cn[nH]c4)cn3)nn2)ccc1F` [Example 185, 2-[[1-[3-(1,1-Difluoroethyl)-4-fluoro-phenyl]triazol-4-yl]methoxy]-5-(1H-pyrazol-4-yl)pyrimidine], the IC50 worked out at 0.166 µM.

In the case of `CC(F)(F)c1cc(-n2cc(COc3nccc(-c4cn[nH]c4)n3)nn2)ccc1F` [Example 186, 2-[[1-[3-(1,1-Difluoroethyl)-4-fluoro-phenyl]triazol-4-yl]methoxy]-4-(1H-pyrazol-4-yl)pyrimidine], the 50% inhibitory concentration (IC50) stood at 1.36 µM.

On to `CC(F)(F)c1cc(-n2cc(COc3ncc(N4CCOCC4)cn3)nn2)ccc1F` [Example 187, 4-(2-((1-(3-(1,1-Difluoroethyl)-4-fluorophenyl)-1H-1,2,3-triazol-4-yl)methoxy)pyrimidin-5-yl)morpholine], for which the IC50 turned out to be 0.088 µM.

Consider `FC(F)c1cc(-n2cc(COc3ncccn3)nn2)ccc1N1CCC1` [Example 188, 2-((1-(4-(Azetidin-1-yl)-3-(difluoromethyl)phenyl)-1H-1,2,3-triazol-4-yl)methoxy)pyrimidine], for which the half-inhibitory concentration (IC50) amounted to 4.58 µM.

Take `Fc1cnc(OCc2cn(-c3ccc(Cl)c(OC(F)F)c3)nn2)cn1` [Example 189, 2-[[1-[4-Chloro-3-(difluoromethoxy)phenyl]triazol-4-yl]methoxy]-5-fluoro-pyrazine]: the IC50 came to 1.46 µM.

`FC(F)Oc1cc(-n2cc(COc3nccc(Cl)n3)nn2)ccc1Cl` [Example 190, 4-Chloro-2-[[1-[4-chloro-3-(difluoromethoxy)phenyl]triazol-4-yl]methoxy]pyrimidine]: the IC50 was 0.026 µM.

Take `Fc1ccnc(OCc2cn(-c3ccc(Cl)c(OC(F)F)c3)nn2)n1` [Example 191, 2-[[1-[4-Chloro-3-(difluoromethoxy)phenyl]triazol-4-yl]methoxy]-4-fluoro-pyrimidine]: the IC50 is 0.023 µM.

For the compound `FCCOc1cnc(OCc2cn(-c3ccc(Cl)c(OC(F)F)c3)nn2)nc1` [Example 192, 2-[[1-[4-Chloro-3-(difluoromethoxy)phenyl]triazol-4-yl]methoxy]-5-(2-fluoroethoxy)pyrimidine], the concentration for half-maximal inhibition (IC50) was 0.03 µM.

With `COc1cnc(OCc2cn(-c3ccc(Cl)c(OCCF)c3)nn2)nc1` [Example 193, 2-[[1-[4-Chloro-3-(2-fluoroethoxy)phenyl]triazol-4-yl]methoxy]-5-methoxy-pyrimidine], the IC50 was found to be 0.089 µM.

For the compound `COc1cnc(OCc2cn(-c3ccc(F)c(CCCF)c3)nn2)nc1` [Example 194, 2-[[1-[4-Fluoro-3-(3-fluoropropyl)phenyl]triazol-4-yl]methoxy]-5-methoxy-pyrimidine], the half-inhibitory concentration (IC50) worked out at 0.061 µM.

`COc1cnc(OCc2cn(-c3ccc(F)c(CCCCl)c3)nn2)nc1` [Example 195, 2-[[1-[3-(3-Chloropropyl)-4-fluoro-phenyl]triazol-4-yl]methoxy]-5-methoxy-pyrimidine]: the half-inhibitory concentration (IC50) came to 0.136 µM.

With `FCCCc1cnc(OCc2cn(-c3ccc(Cl)c(OC(F)F)c3)nn2)nc1` [Example 196, 2-[[1-[4-Chloro-3-(difluoromethoxy)phenyl]triazol-4-yl]methoxy]-5-(3-fluoropropyl)pyrimidine], the IC50 is 0.024 µM.

For `Fc1cnc(NCc2cn(-c3cccc(C(F)F)c3)nn2)nc1` [Example 197, N-[[1-[3-(Difluoromethyl)phenyl]triazol-4-yl]methyl]-5-fluoro-pyrimidin-2-amine], the half-maximal inhibitory concentration (IC50) is 0.652 µM.

`Cc1cnc(NCc2cn(-c3ccc(F)c(C)c3)nn2)nc1` [Example 198, N-[[1-(4-Fluoro-3-methyl-phenyl)triazol-4-yl]methyl]-5-methyl-pyrimidin-2-amine]: the IC50 came out at 0.147 µM.

Consider `Cc1cc(-n2cc(CNc3ncc(Cl)c(C)n3)nn2)ccc1F` [Example 199, 5-Chloro-N-[[1-(4-fluoro-3-methyl-phenyl)triazol-4-yl]methyl]-4-methyl-pyrimidin-2-amine], for which the IC50 was 0.051 µM.

On to `FC(F)c1cc(-n2cc(CNc3ncc(Cl)cn3)nn2)ccc1Cl` [Example 200, 5-Chloro-N-[[1-[4-chloro-3-(difluoromethyl)phenyl]triazol-4-yl]methyl]pyrimidin-2-amine], for which the IC50 was 0.131 µM.

As for `Cc1ccnc(NCc2cn(-c3ccc(Cl)c(C(F)F)c3)nn2)n1` [Example 201, N-[[1-[4-Chloro-3-(difluoromethyl)phenyl]triazol-4-yl]methyl]-4-methyl-pyrimidin-2-amine], the 50% inhibitory concentration (IC50) was found to be 0.1 µM.

Take `CCc1cnc(NCc2cn(-c3ccc(Cl)c(C(F)F)c3)nn2)nc1` [Example 202, N-[[1-[4-Chloro-3-(difluoromethyl)phenyl]triazol-4-yl]methyl]-5-ethyl-pyrimidin-2-amine]: the IC50 came out at 0.044 µM.

For `COc1cnc(NCc2cn(-c3ccc(Cl)c(C(F)F)c3)nn2)nc1` [Example 203, N-[[1-[4-Chloro-3-(difluoromethyl)phenyl]triazol-4-yl]methyl]-5-methoxy-pyrimidin-2-amine], the half-maximal inhibitory concentration (IC50) turned out to be 0.03 µM.

On to `FC(F)c1cnc(NCc2cn(-c3ccc(Cl)c(C(F)F)c3)nn2)nc1` [Example 204, N-[[1-[4-Chloro-3-(difluoromethyl)phenyl]triazol-4-yl]methyl]-5-(difluoromethyl)pyrimidin-2-amine], for which the IC50 was determined as 0.24 µM.

As to `FC(F)c1cc(-n2cc(CNc3ncc(C(F)(F)F)cn3)nn2)ccc1Cl` [Example 205, N-[[1-[4-Chloro-3-(difluoromethyl)phenyl]triazol-4-yl]methyl]-5-(trifluoromethyl)pyrimidin-2-amine], the half-inhibitory concentration (IC50) was determined as 0.616 µM.
